For 15 compounds, TGI and GI50 results are on record in PubChem BioAssay (NCI).

Test in all cases: NCI anticancer screen, dose series, 48 h
The test system of test [1] is DU-145 prostate.
For test [2], the system named is EKVX NSCLC.
Test [3] relates to CAKI-1 renal.
Test [4] relates to PC-3 prostate.
Test [5] relates to HS 578T breast.
Test [6] deals with OVCAR-8 ovarian.
Test [7] relates to SN12C renal.
Test [8] concerns NCI-H23 lung.
Test [9] deals with HCC-2998 colon.
The test system of test [10] is SR leukemia.

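Following 48 hours of exposure in 96-well plates, responses at five concentrations were used to interpolate endpoints linearly. GI50 is the concentration that inhibits growth by half. TGI: total growth inhibition.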

`COC(=O)Nc1nc2ccc(NC(=O)c3ccc(I)cc3)cc2[nH]1`: the TGI in test [1], in test [2], in test [3], in [4], in [5] and in test [6] was greater than 100 µM each time. Besides, the TGI in [7] and in [8] was greater than 100 µM throughout.
As for `O=C1/C(=C/c2cccc3ccccc23)CCc2ccc([N+](=O)[O-])cc21`, the TGI was greater than 100 µM in [1]; greater than 100 µM in test [9]; greater than 100 µM in test [2]; greater than 100 µM in [3]; greater than 100 µM in test [4]; 47.7 µM in test [5]. For the same compound, the TGI in test [6], in test [7] and in test [8] was greater than 100 µM throughout.
In the case of `C=C1CC(C)(c2cccc(Nc3nc4ccccc4c4occc34)c2)OC1=O` (configuration not stated), the TGI in test [1] turned out to be 19.9 µM; in [9], 5.84 µM; in test [2], 27.9 µM; in test [3], 16.7 µM; in test [4], 21.9 µM; in test [5], 9.16 µM. In addition, the TGI stood at 21.3 µM in [6] and 7.75 µM in [7].
For the compound `Cc1nc(Nc2ccccc2Cl)sc1C(=O)CC(=O)C(N)=O`, the TGI in test [1], in test [9], in [2], in [3], in [4] and in test [5] was greater than 100 µM each time. The TGI in [6], in test [7] and in test [8] was greater than 100 µM in each case.
Regarding `Clc1ccc(C2=CCN3CC=C(c4ccc(Cl)cc4)C23)cc1`, the TGI was 29.2 µM in [1]; 11.3 µM in test [9]; 31.6 µM in test [2]; 27.4 µM in test [3]; 21.9 µM in test [10]; 30.3 µM in test [5]. The TGI in [6] came out at 29.4 µM; in test [7] it was 21 µM; in [8], 26.8 µM.
As for `CC(CNC(N)=O)NC(N)=O` (configuration not stated), the TGI in test [1], in [9], in [2], in test [3], in test [4] and in [5] was greater than 100 µM throughout. The TGI in [6], in test [7] and in [8] was greater than 100 µM in each case.
For `C=C1C(C)C2C(Cc3ccccc3)NC(=O)C23OC(=O)/C=C\CC(=O)CCC(C)C/C=C/C3C1O` (configuration not stated), the TGI turned out to be 18.5 µM in test [9]; 10.1 µM in test [2]; 2.24 µM in test [3]; 16.7 µM in test [6]; 5.93 µM in test [7]; 12.5 µM in [8]. Further, the GI50 in test [3] is 474 nM.
Turning to `CCCCCCCCC#CCCCCCCCCCC[C@@H]1C(=O)O[C@H](C)[C@@H]1O` (tested in a mixture with another compound), the TGI in [9] is greater than 100 µM; in test [2], 54.9 µM; in [3], 29.1 µM; in test [4], 46.9 µM; in [6], 29.1 µM; in test [7], 32.3 µM. In addition, in test [8], the TGI was determined as 22.3 µM.
On to `CCCCN(C)/N=N/c1nc[nH]c1C(N)=O`, for which the TGI in test [9], in test [2], in test [3], in test [6], in test [7] and in [8] was greater than 100 µM in each case.
On to `CCN(CC)C(=O)Cn1c2c(c3ccccc31)CCCC2`, for which the TGI in test [9], in test [2], in [3], in test [4], in test [10] and in [5] was greater than 100 µM in each case. For the same compound, the TGI in test [6], in [7] and in [8] was greater than 100 µM throughout.
With `O=c1c2ccccc2nc2ccc3c(Cl)[nH][nH]c3c12`, the TGI in test [9] is greater than 100 µM; in test [2], greater than 100 µM; in [3], 85.3 µM; in test [10] it was greater than 100 µM; in test [6], greater than 100 µM; in [7], greater than 100 µM. The TGI in test [8] is greater than 100 µM.
As for `COc1ccc(C(=O)/C=C/c2cc(-c3cc(OC)c(OC)c(OC)c3)n[nH]2)cc1`, the GI50 in [9] is 1780 nM; in [10] it was 347 nM; in test [5] it was 3.6 µM; in test [6] it was 2430 nM; in test [8], 3.04 µM. Also, the TGI in test [9] is 3.4 µM; in [10], 23.9 µM; in test [5], greater than 100 µM; in test [6] it was 8.26 µM; in [8], 12.2 µM.
On to `O=C1C2C=CC(n3[nH]c(=O)n(Cc4ccccc4)c3=O)CC2C(=O)N1c1ccc(Br)cc1` (configuration not stated), for which the TGI in [9], in test [2], in test [3], in [10], in test [6] and in [7] was greater than 100 µM each time. The compound also gave a TGI in test [8] greater than 100 µM.
For `O=[N+]([O-])/C(C(Cl)=C(Cl)Cl)=C(/Nc1cccc2cccnc12)n1nnc2ccccc21`, the TGI in [9] was greater than 100 µM; in [2], greater than 100 µM; in test [3], 26.3 µM; in test [4], 51.3 µM; in test [5] it was 33.3 µM; in [6] it was 32 µM. For the same compound, the TGI in test [7] is 39.5 µM; in [8], 34.7 µM.
Take `CC(=O)OCC1OC(n2c(C)c(C)c(C)c(C#N)c2=S)C(OC(C)=O)C(OC(C)=O)C1OC(C)=O` (configuration not stated): the TGI is greater than 100 µM in test [1]; greater than 100 µM in test [9]; 94.3 µM in test [2]; greater than 100 µM in test [3]; greater than 100 µM in test [4]; greater than 100 µM in test [10]. For the same compound, the TGI in test [6], in [7] and in test [8] was greater than 100 µM each time.
